# Experimental data: patent US20080009418A1, “Selective Inhibitors” (Alchemia LTD., priority 2004, published 2008)
# Assays:
# [1] = target: T1, Human δ-opioid (DOP) (Homo sapiens, UniProt P41143); experiment: Radioligand binding, human δ-opioid (DOP) membranes, FlashPlate, [3H]-Bremazocine; conditions: compound at 10 μM; [3H]-Bremazocine
# T1 construct: purchased Perkin Elmer Biosignal
# Procedure, shortened: (§1)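 Cloned human receptor membranes were coated onto FlashPlate wells and incubated with radioligand and compound (added from a 0.5 mM DMSO daughter plate) for 1 hour at room temperature in the dark. Scintillation counting gave percent inhibition, with DMSO defining total and reference ligand defining non-specific binding.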
# [2] = target: T2, Human κ-Opioid (KOP) (Homo sapiens, UniProt P41145); experiment: Radioligand binding, human κ-opioid (KOP) membranes, filtration, [3H]-Diprenorphine; conditions: compound at 10 μM, [3H]-Diprenorphine
# T2 construct: purchased Perkin Elmer Biosignal
# T2 sequence (P41145 whole entry): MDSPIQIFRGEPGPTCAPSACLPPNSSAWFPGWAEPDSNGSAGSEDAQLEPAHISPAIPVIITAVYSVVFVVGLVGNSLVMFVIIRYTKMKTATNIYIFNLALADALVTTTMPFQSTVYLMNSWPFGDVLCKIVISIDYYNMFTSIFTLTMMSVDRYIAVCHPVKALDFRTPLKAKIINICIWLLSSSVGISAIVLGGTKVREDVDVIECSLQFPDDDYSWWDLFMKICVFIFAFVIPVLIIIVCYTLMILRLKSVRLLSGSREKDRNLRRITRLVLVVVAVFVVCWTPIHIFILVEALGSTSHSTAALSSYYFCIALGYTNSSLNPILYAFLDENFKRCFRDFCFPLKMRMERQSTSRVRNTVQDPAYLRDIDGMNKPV
# Procedure, shortened: (§2)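 Filtration binding on cloned human receptor membranes (1 Unit/well), [125I]-Substance P for NK1 and [3H]-Diprenorphine for KOP, 1 h at room temperature. Filters PEI-presoaked, washed with cold 50 mM Tris-HCl pH 7.4, counted by scintillation; percent inhibition calculated, reference ligand defining non-specific binding.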
# [3] = target: T3, Human Melanocortin (MC3) (Homo sapiens, UniProt P41968); experiment: Radioligand binding, human melanocortin MC3 membranes, FlashPlate, [125I]-NDP-αMSH; conditions: compound at 10 μM; [125I]-NDP-αMSH
# T3 construct: purchased Perkin Elmer Biosignal
# T3 sequence (P41968 whole entry): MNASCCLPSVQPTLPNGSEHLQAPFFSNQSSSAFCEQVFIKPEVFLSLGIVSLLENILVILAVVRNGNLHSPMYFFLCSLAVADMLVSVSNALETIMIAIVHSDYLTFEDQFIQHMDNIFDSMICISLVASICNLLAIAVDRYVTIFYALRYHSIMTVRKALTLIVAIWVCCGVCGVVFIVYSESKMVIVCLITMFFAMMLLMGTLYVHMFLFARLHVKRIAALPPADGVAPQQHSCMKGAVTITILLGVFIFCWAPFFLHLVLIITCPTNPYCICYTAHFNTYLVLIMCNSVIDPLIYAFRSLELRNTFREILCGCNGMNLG
# Procedure, shortened: as §1
# [4] = target: T4, Human Melanocortin (MC4) (Homo sapiens, UniProt P32245); experiment: Radioligand binding, human melanocortin MC4 membranes, FlashPlate, [125I]-NDP-αMSH; conditions: compound at 10 μM; [125I]-NDP-αMSH
# T4 construct: purchased Perkin Elmer Biosignal
# T4 sequence (P32245 whole entry): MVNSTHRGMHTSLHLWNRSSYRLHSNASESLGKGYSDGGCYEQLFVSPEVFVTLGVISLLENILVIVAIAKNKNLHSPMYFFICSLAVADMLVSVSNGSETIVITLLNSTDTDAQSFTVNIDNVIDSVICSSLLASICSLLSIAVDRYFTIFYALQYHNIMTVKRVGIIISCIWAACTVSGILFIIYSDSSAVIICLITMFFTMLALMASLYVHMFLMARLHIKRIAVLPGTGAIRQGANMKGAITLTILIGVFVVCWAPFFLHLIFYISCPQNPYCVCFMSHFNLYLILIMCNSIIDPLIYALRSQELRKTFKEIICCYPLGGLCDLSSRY
# Procedure, shortened: as §1
# [5] = target: T5, Human melanocortin (MC5) (Homo sapiens, UniProt P33032); experiment: Radioligand binding, human melanocortin MC5 membranes, FlashPlate, [125I]-NDP-αMSH; conditions: compound at 10 μM; [125I]-NDP-αMSH
# T5 construct: purchased Perkin Elmer Biosignal
# T5 sequence (P33032 whole entry): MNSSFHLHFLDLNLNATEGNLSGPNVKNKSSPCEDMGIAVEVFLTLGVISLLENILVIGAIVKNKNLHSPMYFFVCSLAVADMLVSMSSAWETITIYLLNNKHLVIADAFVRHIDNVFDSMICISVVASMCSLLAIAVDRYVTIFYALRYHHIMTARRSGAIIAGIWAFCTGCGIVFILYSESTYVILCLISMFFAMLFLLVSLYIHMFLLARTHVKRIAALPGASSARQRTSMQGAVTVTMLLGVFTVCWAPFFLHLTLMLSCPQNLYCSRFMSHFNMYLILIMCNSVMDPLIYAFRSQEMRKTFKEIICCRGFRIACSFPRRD
# Procedure, shortened: as §1
# [6] = target: T6, Human melanin-concentrating hormone (MCH1) (Homo sapiens, UniProt Q99705); experiment: Radioligand binding, human melanin-concentrating hormone MCH1 membranes, FlashPlate, [125I]-S36057; conditions: compound at 10 μM; [125I]-S36057
# T6 construct: purchased Perkin Elmer Biosignal
# T6 sequence (Q99705 whole entry): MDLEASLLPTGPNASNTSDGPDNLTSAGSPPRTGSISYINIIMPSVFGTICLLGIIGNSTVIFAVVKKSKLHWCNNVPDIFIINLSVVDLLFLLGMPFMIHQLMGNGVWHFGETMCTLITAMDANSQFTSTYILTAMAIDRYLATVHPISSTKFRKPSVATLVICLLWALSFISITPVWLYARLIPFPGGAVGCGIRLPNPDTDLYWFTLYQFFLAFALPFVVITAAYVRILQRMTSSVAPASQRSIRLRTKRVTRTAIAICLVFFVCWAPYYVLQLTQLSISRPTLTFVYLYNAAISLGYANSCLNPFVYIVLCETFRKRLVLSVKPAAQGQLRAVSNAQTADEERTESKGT
# Procedure, shortened: as §1
# [7] = target: T7, Human μ-opioid (MOP) (Homo sapiens, UniProt P35372); experiment: Radioligand binding, human μ-opioid (MOP) membranes, FlashPlate, [3H]-Naloxone; conditions: compound at 10 μM; [3H]-Naloxone
# T7 construct: purchased Perkin Elmer Biosignal
# T7 sequence (P35372 whole entry): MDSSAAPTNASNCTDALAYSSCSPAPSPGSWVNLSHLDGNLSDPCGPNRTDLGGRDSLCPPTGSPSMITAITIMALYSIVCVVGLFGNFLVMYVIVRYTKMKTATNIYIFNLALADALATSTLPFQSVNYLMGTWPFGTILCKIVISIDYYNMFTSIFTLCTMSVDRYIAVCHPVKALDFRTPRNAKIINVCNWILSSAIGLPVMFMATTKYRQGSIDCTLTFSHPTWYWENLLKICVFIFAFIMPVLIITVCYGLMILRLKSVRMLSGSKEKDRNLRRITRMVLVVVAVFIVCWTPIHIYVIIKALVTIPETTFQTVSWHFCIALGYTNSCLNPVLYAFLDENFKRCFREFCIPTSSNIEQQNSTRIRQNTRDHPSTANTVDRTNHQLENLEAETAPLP
# Procedure, shortened: as §1
# [8] = target: T8, Human neurokinin (NK1) (Homo sapiens, UniProt P25103); experiment: Radioligand binding, human neurokinin NK1 membranes, filtration, [125I]-Substance P; conditions: compound at 10 μM; [125I]-Substance P
# T8 construct: purchased Perkin Elmer Biosignal
# T8 sequence (P25103 whole entry): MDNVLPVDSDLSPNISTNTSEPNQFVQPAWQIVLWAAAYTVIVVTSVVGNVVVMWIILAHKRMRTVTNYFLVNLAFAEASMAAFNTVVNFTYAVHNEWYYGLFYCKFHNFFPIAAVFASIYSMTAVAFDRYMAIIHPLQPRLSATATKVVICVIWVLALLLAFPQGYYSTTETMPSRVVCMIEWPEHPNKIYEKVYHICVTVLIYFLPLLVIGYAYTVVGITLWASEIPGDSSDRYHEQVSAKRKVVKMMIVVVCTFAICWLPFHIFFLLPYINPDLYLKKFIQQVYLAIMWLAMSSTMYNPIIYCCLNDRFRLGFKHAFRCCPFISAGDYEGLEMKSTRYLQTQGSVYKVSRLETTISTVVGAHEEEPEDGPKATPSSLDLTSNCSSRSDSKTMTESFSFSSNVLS
# Procedure, shortened: as §2
# [9] = target: T9, Human neuropeptide Y (NPY-Y1) (Homo sapiens, UniProt P25929); experiment: Radioligand binding, human neuropeptide Y NPY-Y1 membranes, FlashPlate, [125I]-PYY; conditions: compound at 10 μM, [125I]-PYY
# T9 construct: purchased Perkin Elmer Biosignal
# T9 sequence (P25929 1-384): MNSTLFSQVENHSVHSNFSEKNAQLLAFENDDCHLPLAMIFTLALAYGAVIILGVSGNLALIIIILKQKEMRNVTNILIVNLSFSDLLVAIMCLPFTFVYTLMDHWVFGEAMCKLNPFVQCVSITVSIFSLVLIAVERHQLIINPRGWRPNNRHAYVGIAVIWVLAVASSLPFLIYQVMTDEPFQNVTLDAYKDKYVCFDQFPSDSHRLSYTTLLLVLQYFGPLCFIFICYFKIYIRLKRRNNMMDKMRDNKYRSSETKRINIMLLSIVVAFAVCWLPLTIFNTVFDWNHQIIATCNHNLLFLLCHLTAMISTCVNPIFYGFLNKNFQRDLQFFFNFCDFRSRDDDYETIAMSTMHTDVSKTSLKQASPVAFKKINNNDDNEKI
# Procedure, shortened: as §1
# [10] = target: T10, Human opioid (ORL1) (Homo sapiens, UniProt P41146); experiment: Radioligand binding, human opioid ORL1 membranes, FlashPlate, [125I]-Nociceptin; conditions: compound at 10 μM; [125I]-Nociceptin
# T10 construct: purchased Perkin Elmer Biosignal
# T10 sequence (P41146 whole entry): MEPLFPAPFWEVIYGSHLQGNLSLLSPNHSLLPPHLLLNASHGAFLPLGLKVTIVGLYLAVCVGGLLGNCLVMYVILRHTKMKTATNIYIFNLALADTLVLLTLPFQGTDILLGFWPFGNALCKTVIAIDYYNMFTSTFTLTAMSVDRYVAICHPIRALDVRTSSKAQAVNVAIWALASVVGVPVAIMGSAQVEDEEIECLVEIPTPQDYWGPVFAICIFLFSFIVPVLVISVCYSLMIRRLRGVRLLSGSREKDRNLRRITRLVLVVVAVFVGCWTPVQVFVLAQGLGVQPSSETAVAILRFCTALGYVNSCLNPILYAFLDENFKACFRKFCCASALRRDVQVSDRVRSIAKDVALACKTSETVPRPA
# Procedure, shortened: as §1
# [11] = target: T11, Mouse urotensin (mUR2) (Mus musculus, UniProt Q8VIH9); experiment: Radioligand binding, mouse urotensin mUR2 membranes, FlashPlate, [125I]-Urotensin II; conditions: compound at 10 μM, [125I]-Urotensin II
# T11 construct: purchased Perkin Elmer Biosignal
# T11 sequence (Q8VIH9 1-385): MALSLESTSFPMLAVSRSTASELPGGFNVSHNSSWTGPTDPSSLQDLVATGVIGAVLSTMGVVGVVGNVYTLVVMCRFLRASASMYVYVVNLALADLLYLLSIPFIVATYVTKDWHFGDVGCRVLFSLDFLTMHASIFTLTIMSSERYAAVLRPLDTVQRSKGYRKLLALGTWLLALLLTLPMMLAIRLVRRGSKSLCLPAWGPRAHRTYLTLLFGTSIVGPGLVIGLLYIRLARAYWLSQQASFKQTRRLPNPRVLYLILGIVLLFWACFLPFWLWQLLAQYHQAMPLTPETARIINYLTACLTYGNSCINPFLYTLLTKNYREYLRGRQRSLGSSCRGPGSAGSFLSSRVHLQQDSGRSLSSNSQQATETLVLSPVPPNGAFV
# Procedure, shortened: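 Cloned mouse urotensin (mUR2) receptor membranes from Perkin Elmer Biosignal were immobilized in FlashPlate microplates using a proprietary coating. Each well got 19.5 μl buffer, then 0.5 μl of DMSO, reference ligand, or compound. Adding 5 μl of [125I]-Urotensin II, diluted to 5× final concentration in binding buffer, started binding. Plates were sealed with TopSeal-A and incubated 1 hour at room temperature in the dark. Wells were counted for 30 seconds each on a TopCount after a 60-second delay, and percentage inhibition was calculated.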
# T1 sequence (P41143 whole entry): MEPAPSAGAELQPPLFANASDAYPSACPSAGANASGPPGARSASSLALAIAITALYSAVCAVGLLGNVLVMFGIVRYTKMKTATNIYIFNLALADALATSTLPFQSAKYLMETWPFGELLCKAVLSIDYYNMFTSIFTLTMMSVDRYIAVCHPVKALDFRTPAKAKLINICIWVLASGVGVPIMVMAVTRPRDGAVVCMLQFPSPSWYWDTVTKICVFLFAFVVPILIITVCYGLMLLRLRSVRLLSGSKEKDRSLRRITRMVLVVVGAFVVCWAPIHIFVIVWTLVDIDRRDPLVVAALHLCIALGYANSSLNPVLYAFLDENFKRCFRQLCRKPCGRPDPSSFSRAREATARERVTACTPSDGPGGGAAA
Compound,"A1: inhibition of radioligand binding, human δ-opioid (DOP) [1]","A2: inhibition of radioligand binding, human κ-opioid (KOP) ([2]; 10 µM)","A3: inhibition of radioligand binding, human melanocortin (MC3) [3]","A4: inhibition of radioligand binding, human melanocortin (MC4) [4]","A5: inhibition of radioligand binding, human melanocortin (MC5) [5]","A6: inhibition of radioligand binding, human melanin-concentrating hormone (MCH1) [6]","A7: inhibition of radioligand binding, human μ-opioid (MOP) [7]","A8: inhibition of radioligand binding, human neurokinin (NK1) [8]","A9: inhibition of radioligand binding, human neuropeptide Y (NPY-Y1) ([9]; 10 µM)","A10: inhibition of radioligand binding, human opioid (ORL1) [10]","A11: inhibition of radioligand binding, mouse urotensin (mUR2) ([11]; 10 µM)","A2: inhibition of radioligand binding, human κ-opioid (KOP) [2]","A9: inhibition of radioligand binding, human neuropeptide Y (NPY-Y1) [9]","A11: inhibition of radioligand binding, mouse urotensin (mUR2) [11]"
N=C(N)NCCC(=O)N[C@H]1C(OCc2ccc(Cl)cc2)O[C@H](COCc2ccc(Cl)cc2)[C@@H](O)[C@@H]1OCc1ccc(-c2ccccc2)cc1 (stereo partly shown) [compound 537],− (“−” indicates less than 50% inhibition at 10 μM),− (“−” indicates less than 50% inhibition at 10 μM),+ (“+” indicates greater than 50% inhibition at 10 μM),+ (“+” indicates greater than 50% inhibition at 10 μM),+ (“+” indicates greater than 50% inhibition at 10 μM),+ (“+” indicates greater than 50% inhibition at 10 μM),− (“−” indicates less than 50% inhibition at 10 μM),+ (“+” indicates greater than 50% inhibition at 10 μM),− (“−” indicates less than 50% inhibition at 10 μM),+ (“+” indicates greater than 50% inhibition at 10 μM),− (“−” indicates less than 50% inhibition at 10 μM),,,
N=C(N)NCCC(=O)N[C@H]1C(OCc2ccc(Cl)cc2)O[C@H](COCc2ccc(Cl)cc2)[C@@H](O)[C@@H]1OCc1ccc(-c2ccccc2)cc1 (stereo partly shown) [compound 538],− (“−” indicates less than 50% inhibition at 10 μM),+ (“+” indicates greater than 50% inhibition at 10 μM),+ (“+” indicates greater than 50% inhibition at 10 μM),+ (“+” indicates greater than 50% inhibition at 10 μM),+ (“+” indicates greater than 50% inhibition at 10 μM),+ (“+” indicates greater than 50% inhibition at 10 μM),− (“−” indicates less than 50% inhibition at 10 μM),+ (“+” indicates greater than 50% inhibition at 10 μM),+ (“+” indicates greater than 50% inhibition at 10 μM),+ (“+” indicates greater than 50% inhibition at 10 μM),+ (“+” indicates greater than 50% inhibition at 10 μM),,,
N=C(N)NCC(=O)NC1COC(COCc2ccc(Cl)cc2)C(O)C1OCc1ccc(Cl)cc1 (stereo not shown) [compound 539],− (“−” indicates less than 50% inhibition at 10 μM),,− (“−” indicates less than 50% inhibition at 10 μM),+ (“+” indicates greater than 50% inhibition at 10 μM),− (“−” indicates less than 50% inhibition at 10 μM),− (“−” indicates less than 50% inhibition at 10 μM),− (“−” indicates less than 50% inhibition at 10 μM),+ (“+” indicates greater than 50% inhibition at 10 μM),,− (“−” indicates less than 50% inhibition at 10 μM),,− (“−” indicates less than 50% inhibition at 10 μM),− (“−” indicates less than 50% inhibition at 10 μM),− (“−” indicates less than 50% inhibition at 10 μM)
N=C(N)NCC(=O)NC1COC(COCc2ccc3ccccc3c2)C(O)C1OCc1ccc(Cl)cc1 (stereo not shown) [compound 540],− (“−” indicates less than 50% inhibition at 10 μM),,− (“−” indicates less than 50% inhibition at 10 μM),+ (“+” indicates greater than 50% inhibition at 10 μM),− (“−” indicates less than 50% inhibition at 10 μM),− (“−” indicates less than 50% inhibition at 10 μM),− (“−” indicates less than 50% inhibition at 10 μM),+ (“+” indicates greater than 50% inhibition at 10 μM),,− (“−” indicates less than 50% inhibition at 10 μM),,− (“−” indicates less than 50% inhibition at 10 μM),− (“−” indicates less than 50% inhibition at 10 μM),− (“−” indicates less than 50% inhibition at 10 μM)
N=C(N)NCCCC(=O)NC1COC(COCc2ccc3ccccc3c2)C(O)C1OCc1ccc(Cl)cc1 (stereo not shown) [compound 541],− (“−” indicates less than 50% inhibition at 10 μM),,− (“−” indicates less than 50% inhibition at 10 μM),− (“−” indicates less than 50% inhibition at 10 μM),− (“−” indicates less than 50% inhibition at 10 μM),− (“−” indicates less than 50% inhibition at 10 μM),− (“−” indicates less than 50% inhibition at 10 μM),+ (“+” indicates greater than 50% inhibition at 10 μM),,− (“−” indicates less than 50% inhibition at 10 μM),,− (“−” indicates less than 50% inhibition at 10 μM),− (“−” indicates less than 50% inhibition at 10 μM),− (“−” indicates less than 50% inhibition at 10 μM)
